Test results taken from patent publication US8785600B2, “Anti-GCC antibody molecules and related compositions and methods” (Millennium Pharmaceuticals, Inc., priority 2009, dated 2014).

Experiments:
[1] = tested on: GCC-expressing cells (T84 cells compared to MCF-7 cells; vector control cells); assay: Internalization assay (immunofluorescence microscopy); format: cell-based, human; conditions: 10 μg/ml, 37° C.
Description: Internalization of anti-GCC antibody molecules was tested in both GCC-expressing cells and vector control cells, using immunofluorescence microscopy. Cells were grown on coverslips and placed on ice for 10 minutes prior to incubation with 10 μg/ml antibody in cold culture medium for 20 minutes on ice. For internalization, antibody-containing medium was replaced with fresh culture medium and the cells were shifted to 37° C. for 2-3 hours or maintained on ice. After rinsing in PBS and a brief fixation in 4% paraformaldehyde at room temperature, cells were permeabilized for 15 min in 0/5% TRITON X-100. The localization of the test antibody was determined using a fluorescently labeled anti-IgG antibody by laser scanning confocal microscopy. Antibody molecules localized to the cell surface of GCC-expressing cells when on ice.
Most of the antibodies generated herein were tested in a number of the assays described above. (T84=human colon tumor cells, MCF7=human breast tumor cells, WB=western blot, IP=immunoprecipitation, IHC=immunohistochemistry; internalization used T84 cells compared to MCF-7 cells)

[2] = target: T1, mouse GCC (Mus musculus, UniProt Q3UWA6); assay: Cross-reactivity with GCC orthologs (ELISA); format: binding
T1 sequence (Q3UWA6 20-1072): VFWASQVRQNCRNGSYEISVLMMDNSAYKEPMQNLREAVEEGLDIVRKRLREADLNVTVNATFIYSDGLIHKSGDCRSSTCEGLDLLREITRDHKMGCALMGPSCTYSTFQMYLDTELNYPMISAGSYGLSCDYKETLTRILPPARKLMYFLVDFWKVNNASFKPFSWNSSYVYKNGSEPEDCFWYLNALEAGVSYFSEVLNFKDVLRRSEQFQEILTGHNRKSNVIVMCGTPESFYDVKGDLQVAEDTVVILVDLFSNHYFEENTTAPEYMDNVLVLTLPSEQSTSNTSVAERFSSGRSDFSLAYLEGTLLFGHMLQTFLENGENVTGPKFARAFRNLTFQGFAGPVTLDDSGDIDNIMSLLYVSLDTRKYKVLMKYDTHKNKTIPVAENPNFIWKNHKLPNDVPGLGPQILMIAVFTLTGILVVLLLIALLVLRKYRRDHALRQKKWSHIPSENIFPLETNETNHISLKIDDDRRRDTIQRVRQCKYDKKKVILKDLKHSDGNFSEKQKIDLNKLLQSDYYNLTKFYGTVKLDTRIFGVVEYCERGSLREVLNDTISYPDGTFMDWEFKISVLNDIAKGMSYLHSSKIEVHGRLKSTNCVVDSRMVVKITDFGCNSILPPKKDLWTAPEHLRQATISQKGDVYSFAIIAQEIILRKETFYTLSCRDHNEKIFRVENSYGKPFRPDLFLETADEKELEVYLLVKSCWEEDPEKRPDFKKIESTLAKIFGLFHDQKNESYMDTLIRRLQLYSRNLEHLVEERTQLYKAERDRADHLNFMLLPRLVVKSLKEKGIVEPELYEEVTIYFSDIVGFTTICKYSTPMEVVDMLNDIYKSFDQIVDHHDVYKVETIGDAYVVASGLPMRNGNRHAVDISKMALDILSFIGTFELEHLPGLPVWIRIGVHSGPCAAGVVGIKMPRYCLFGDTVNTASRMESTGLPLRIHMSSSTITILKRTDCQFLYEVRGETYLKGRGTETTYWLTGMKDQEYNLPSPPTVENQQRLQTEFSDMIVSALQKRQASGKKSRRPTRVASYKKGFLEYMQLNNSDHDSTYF
Source text: (§1) FIG. 4 depicts ELISA binding assays to test antibody cross-reactivity of GCC orthologs.

[3] = target: T2, rat GCC (Rattus norvegicus, UniProt P23897); assay: Cross-reactivity with GCC orthologs (ELISA); format: binding
T2 sequence (P23897 23-1072): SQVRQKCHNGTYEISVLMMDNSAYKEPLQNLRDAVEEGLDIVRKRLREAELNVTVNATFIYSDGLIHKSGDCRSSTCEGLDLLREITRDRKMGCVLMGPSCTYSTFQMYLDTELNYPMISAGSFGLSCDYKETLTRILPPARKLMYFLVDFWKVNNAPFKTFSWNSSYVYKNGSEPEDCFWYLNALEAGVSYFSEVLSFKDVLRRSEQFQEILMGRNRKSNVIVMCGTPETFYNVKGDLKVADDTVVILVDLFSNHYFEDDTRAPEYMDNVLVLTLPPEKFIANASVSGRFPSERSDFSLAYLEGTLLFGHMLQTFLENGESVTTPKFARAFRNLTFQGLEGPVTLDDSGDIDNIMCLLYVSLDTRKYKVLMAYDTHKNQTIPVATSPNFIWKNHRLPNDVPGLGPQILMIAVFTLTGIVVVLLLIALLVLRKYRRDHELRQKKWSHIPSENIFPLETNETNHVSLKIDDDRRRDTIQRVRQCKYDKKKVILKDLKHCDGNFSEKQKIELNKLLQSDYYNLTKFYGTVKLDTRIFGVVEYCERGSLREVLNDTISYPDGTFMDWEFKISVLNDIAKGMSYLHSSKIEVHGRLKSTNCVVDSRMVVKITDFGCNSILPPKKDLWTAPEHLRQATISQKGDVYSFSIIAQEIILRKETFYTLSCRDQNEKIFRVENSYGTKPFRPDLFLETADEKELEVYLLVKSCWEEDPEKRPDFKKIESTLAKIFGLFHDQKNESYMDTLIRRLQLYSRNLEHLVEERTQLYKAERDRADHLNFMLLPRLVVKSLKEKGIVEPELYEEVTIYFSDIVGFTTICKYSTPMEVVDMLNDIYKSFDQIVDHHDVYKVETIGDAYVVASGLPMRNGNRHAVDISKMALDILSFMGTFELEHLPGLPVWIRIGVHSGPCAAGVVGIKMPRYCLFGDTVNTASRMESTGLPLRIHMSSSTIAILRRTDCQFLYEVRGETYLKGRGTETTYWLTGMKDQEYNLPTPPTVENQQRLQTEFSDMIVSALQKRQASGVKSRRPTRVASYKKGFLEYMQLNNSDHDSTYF
Source text: as §1

[4] = tested on: CT26 hGCC/luc #32 cells; assay: Pilot efficacy study with naked antibody in CT26 hGCC/luc #32 disseminated model; conditions: for Lung weight, T test P vs. vehicle: end of study

5F9: Human anti-GCC mAb (IgG2, kappa) of hybridoma 5F9, ATCC PTA-8132; VH SEQ ID NO:18, VL SEQ ID NO:20; also engineered as IgG1
Internalization (localization of antibody by confocal microscopy) [1]: punctuate staining within the cell membrane, indicative of internalization
Binding to mouse GCC [2]: does not bind
Binding to rat GCC [3]: does not bind
Lung weight, T test P vs. vehicle ([4]; 10 mg/kg): < 0.01
In vivo MRI of lungs ([4]; 40 mg/kg): normal lung presentation was seen without evidence of tumor
T/C (treatment/control) ([4]; 40 mg/kg and 10 mg/kg, 1×10^5 cells/mouse, day 34p.i, vs vehicle): 0.04 to 0.05
Lung weight, T test P vs. vehicle ([4]; 40 mg/kg): < 0.05
T/C compared to the 209 group ([4]; 1×10^5 cells/mouse, day 34p.i): 0.18 to 0.14
Benefit in 5×10^5 groups ([4]; 5×10^5 cells/mouse): No benefit was seen
